# Data reported in US11752139B2, “Therapeutic combinations of orally administered irinotecan and a p-gp inhibitor for the treatment of cancer” (priority 2018, dated 2023).
# Values joined by “and” are separate entries in the source; they are usually repeats but may differ in a detail not shown here. Equal values may be shown once. Read-outs that look alike come from different tables or passages of the source.
# What was measured:
# [1] = Study 2: pharmacokinetics of oral irinotecan and M1, 5-20 mg/m^2 per day for 10 days during a 21 day cycle; conditions: for AUC24 / Cmax: mean
# [2] = for AUC24 h / Cmax / Tmax: N = 3
# Description: A phase 1 dose escalation study was performed to determine the MTD and DLT of orally administered irinotecan in combination with 15 mg (on day 1 of a 21-day cycle) of HM30181A. The study was performed on cohorts of 3-6 subjects with advanced malignancies. Subjects had Hb (hemoglobin count) 9 gm/dL, ANC (absolute neutrophil count) 1.5×10^9/L, and platelets 100×10^9/L, as well as adequate hepatic and renal function, and ECOG (Eastern Cooperative Oncology Group Performance Status) 0-1, and were not homozygous for UGT1A1*28.
# [3] = Study 1: pharmacokinetics of oral irinotecan and M1, 5-30 mg/m^2 per day for five days during a 21 day cycle; conditions: for AUC24 / Cmax: mean
# [4] = Simple Emax model of exposure (AUCinf, Cmax) versus dose
# [5] = IV dose of 340 mg/m^2; reference line of FIG. 5A; cited from earlier work
# [6] = dose 240 mg/m^2 oral irinotecan + 15 mg HM30181A
# [7] = dose 280 mg/m^2 oral irinotecan + 15 mg HM30181A
# [8] = dose 320 mg/m^2 oral irinotecan + 15 mg HM30181A
# [9] = Tablet, dose 120 (mg), Mean (CV %), N 3, plasma
# [10] = Tablet, dose 160 (mg), Mean (CV %), N 3, plasma
# [11] = Tablet, dose 200 (mg), Mean (CV %), N 3, plasma
# [12] = Tablet, dose 240 (mg), Mean (CV %), N 3, plasma
# [13] = Tablet, dose 280 (mg), Mean (CV %), N 3, plasma
# [14] = Tablet, dose 320 (mg), Mean (CV %), N 3, plasma
# [15] = single oral dose 240 mg/m^2, individual subjects 1-3, plasma
# [16] = single oral dose 280 mg/m^2, individual subjects 4-6, plasma
# [17] = single oral dose 320 mg/m^2, individual subjects 7-9, plasma
smiles,measurement,setting,value
CCc1c2c(nc3ccc(O)cc13)-c1cc3c(c(=O)n1C2)COC(=O)[C@]3(O)CC [Compound M1],pharmacokinetics versus dose,[1]; 5-20 mg/m^2 per day for 10 days during a 21 day cycle,increased proportionally with dose
same,AUC24,"[1]; Day 1, dose group 5 mg/m^2",41.40 ng·h/mL
same,Cmax,"[1]; Day 1, dose group 5 mg/m^2",7.08 ng/mL
same,AUC24,"[1]; Day 1, dose group 10 mg/m^2",43.34 ng·h/mL
same,Cmax,"[1]; Day 1, dose group 10 mg/m^2",5.04 ng/mL
same,AUC24,"[1]; Day 1, dose group 15 mg/m^2",85.61 ng·h/mL
same,Cmax,"[1]; Day 1, dose group 15 mg/m^2",10.19 ng/mL
same,AUC24,"[1]; Day 1, dose group 20 mg/m^2",54.44 ng·h/mL
same,Cmax,"[1]; Day 1, dose group 20 mg/m^2",4.15 ng/mL
same,AUC24,"[1]; Day 12, dose group 5 mg/m^2",42.53 ng·h/mL
same,Cmax,"[1]; Day 12, dose group 5 mg/m^2",6.10 ng/mL
same,AUC24,"[1]; Day 12, dose group 10 mg/m^2",38.17 ng·h/mL
same,Cmax,"[1]; Day 12, dose group 10 mg/m^2",4.04 ng/mL
same,AUC24,"[1]; Day 12, dose group 15 mg/m^2",144.14 ng·h/mL
same,Cmax,"[1]; Day 12, dose group 15 mg/m^2",18.00 ng/mL
same,AUC24,"[1]; Day 12, dose group 20 mg/m^2",71.97 ng·h/mL
same,Cmax,"[1]; Day 12, dose group 20 mg/m^2",7.63 ng/mL
same,AUC24 h,[2]; [6],264 ng·h/mL
same,Cmax,[2]; [6],28.3 ng/mL
same,Tmax,[2]; [6],3.0 h
same,AUC24 h,[2]; [7],293 ng·h/mL
same,Cmax,[2]; [7],37.6 ng/mL
same,AUC24 h,[2]; [8],300 ng·h/mL
same,Cmax,[2]; [8],38.5 ng/mL
same,Tmax,[2]; [8],2.0 h
same,concentrations of SN-38 reached,[2]; oral administration of HM30181A in combination with irinotecan tablets,pharmacologically active concentrations
same,pharmacokinetics versus dose,[3]; 5-30 mg/m^2 per day for five days during a 21 day cycle,increased proportionally with dose
same,AUC24,"[3]; Day 1, dose group 5 mg/m^2",49.83 ng·h/mL
same,Cmax,"[3]; Day 1, dose group 5 mg/m^2",6.07 ng/mL
same,AUC24,"[3]; Day 1, dose group 10 mg/m^2",46.04 ng·h/mL
same,Cmax,"[3]; Day 1, dose group 10 mg/m^2",7.84 ng/mL
same,AUC24,"[3]; Day 1, dose group 15 mg/m^2",50.29 ng·h/mL
same,Cmax,"[3]; Day 1, dose group 15 mg/m^2",5.33 ng/mL
same,AUC24,"[3]; Day 1, dose group 20 mg/m^2",63.56 ng·h/mL
same,Cmax,"[3]; Day 1, dose group 20 mg/m^2",8.92 ng/mL
same,AUC24,"[3]; Day 1, dose group 25 mg/m^2",143.97 ng·h/mL
same,Cmax,"[3]; Day 1, dose group 25 mg/m^2",17.10 ng/mL
same,AUC24,"[3]; Day 1, dose group 30 mg/m^2",83.64 ng·h/mL
same,Cmax,"[3]; Day 1, dose group 30 mg/m^2",7.31 ng/mL
same,AUC24,"[3]; Day 5, dose group 5 mg/m^2",68.61 ng·h/mL
same,Cmax,"[3]; Day 5, dose group 5 mg/m^2",5.84 ng/mL
same,AUC24,"[3]; Day 5, dose group 10 mg/m^2",51.40 ng·h/mL
same,Cmax,"[3]; Day 5, dose group 10 mg/m^2",6.15 ng/mL
same,AUC24,"[3]; Day 5, dose group 15 mg/m^2",118.29 ng·h/mL
same,Cmax,"[3]; Day 5, dose group 15 mg/m^2",11.14 ng/mL
same,AUC24,"[3]; Day 5, dose group 20 mg/m^2",119.38 ng·h/mL
same,Cmax,"[3]; Day 5, dose group 20 mg/m^2",11.73 ng/mL
same,AUC24,"[3]; Day 5, dose group 25 mg/m^2",178.58 ng·h/mL
same,Cmax,"[3]; Day 5, dose group 25 mg/m^2",14.93 ng/mL
same,AUC24,"[3]; Day 5, dose group 30 mg/m^2",308.27 ng·h/mL
same,Cmax,"[3]; Day 5, dose group 30 mg/m^2",13.44 ng/mL
same,Predicted AUCinf,[4]; dose 200 mg/m^2,423
same,Predicted Cmax,[4]; dose 200 mg/m^2,29.2
same,Predicted AUCinf,[4]; dose 240 mg/m^2,464
same,Predicted Cmax,[4]; dose 240 mg/m^2,31.9
same,Predicted AUCinf,[4]; dose 280 mg/m^2,499
same,Predicted Cmax,[4]; dose 280 mg/m^2,34.1
same,Predicted AUCinf,[4]; dose 320 mg/m^2,528
same,Predicted Cmax,[4]; dose 320 mg/m^2,38.8
same,AUC0-inf,"Tablet, dose 120 (mg), Mean (CV %), N 2, plasma",274 (18.3) ng*hr/mL
same,AUC0-24,[9],168 (32.9) ng*hr/mL
same,Cmax,[9],23.1 (58.4) ng/mL
same,Tlast,[9],56.0 h
same,Tmax*,"Tablet, dose 120 (mg), N 3, plasma",3.00 h
same,AUC0-24,[10],156 (22.6) ng*hr/mL
same,AUC0-inf,[10],235 (13.4) ng*hr/mL
same,Cmax,[10],25.0 (58.1) ng/mL
same,Tlast,[10],48.0 (21.7) hr
same,Tmax*,"Tablet, dose 160 (mg), N 3, plasma",3.00 h
same,AUC0-24,[11],185 (66.3) ng*hr/mL
same,AUC0-inf,[11],468 (90.0) ng*hr/mL
same,Cmax,[11],23.0 (102) ng/mL
same,Tlast,[11],88.0 (83.3) hr
same,Tmax*,"Tablet, dose 200 (mg), N 3, plasma",3.00 h
same,AUC0-24,[12],264 (66.4) ng*hr/mL
same,Cmax,[12],28.3 (67.3) ng/mL
same,Tlast,[12],96.0 (66.1) hr
same,AUC0-inf,"Tablet, dose 240 (mg), N 1, plasma",224 ng·h/mL
same,Tmax*,"Tablet, dose 240 (mg), N 3, plasma",3.00 h
same,AUC0-24,[13],293 (60.0) ng*hr/mL
same,AUC0-inf,[13],468 (67.3) ng*hr/mL
same,Cmax,[13],37.6 (42.4) ng/mL
same,Tlast,[13],72.0 (0) hr
same,Tmax*,"Tablet, dose 280 (mg), N 3, plasma",1.5 h
same,AUC0-24,[14],300 (42.3) ng*hr/mL
same,Cmax,[14],38.5 (58.7) ng/mL
same,Tlast,[14],72.0 (0) hr
same,AUC0-inf,"Tablet, dose 320 (mg), N 1, plasma",349 ng·h/mL
same,Tmax*,"Tablet, dose 320 (mg), N 3, plasma",2.00 h
same,Observed Mean (Cmax),dose 200 mg/m^2,23 ng/mL
same,Observed Mean AUCinf,dose 200 mg/m^2,468 ng·h/mL
same,Observed Mean (Cmax),dose 240 mg/m^2,28.3 ng/mL
same,Observed Mean AUCinf,dose 240 mg/m^2,224 ng·h/mL
same,Observed Mean (Cmax),dose 280 mg/m^2,37.6 ng/mL
same,Observed Mean AUCinf,dose 280 mg/m^2,468 ng·h/mL
same,Observed Mean (Cmax),dose 320 mg/m^2,38.7 ng/mL
same,Observed Mean AUCinf,dose 320 mg/m^2,349 ng·h/mL
same,subjects with M1 exposures (AUC24) comparable between oral irinotecan and IV irinotecan,dose level of 200 mg/m^2 and above,4 of 9
same,M1 Cmax compared with IV irinotecan,oral solution administration,within the range of 125 mg/m^2 dosed IV irinotecan
same,"early enterohepatic recycling (EHR) in plasma concentration profile, time",plasma,5.5 h
same,"possible enterohepatic recycling (EHR) in plasma concentration profile, time",plasma,50 h
same,AUC24,[15],133 ng·h/mL and 463 ng·h/mL and 195 ng·h/mL
same,AUCinf,[15],224 ng·h/mL
same,AUClast,[15],185 ng·h/mL and 636 ng·h/mL and 376 ng·h/mL
same,Cmax,[15],17.1 ng/mL and 50.3 ng/mL and 17.5 ng/mL
same,Tlast,[15],48 h and 168 h and 72 h
same,Tmax,[15],3 h
same,AUC24,[16],497 ng·h/mL and 190 ng·h/mL and 194 ng·h/mL
same,AUCinf,[16],831 ng·h/mL and 273 ng·h/mL and 300 ng·h/mL
same,AUClast,[16],783 ng·h/mL and 256 ng·h/mL and 282 ng·h/mL
same,Cmax,[16],55.4 ng/mL and 33.0 ng/mL and 24.5 ng/mL
same,Tlast,[16],72 h
same,Tmax,[16],1 h and 1.5 h and 3 h
same,AUC24,[17],212 ng·h/mL and 445 ng·h/mL and 242 ng·h/mL
same,AUCinf,[17],349 ng·h/mL
same,AUClast,[17],322 ng·h/mL and 713 ng·h/mL and 410 ng·h/mL
same,Cmax,[17],28.1 ng/mL and 64.8 ng/mL and 23.2 ng/mL
same,Tlast,[17],72 h
same,Tmax,[17],1.5 h and 2 h and 3 h
same,M1 Cmax compared with IV irinotecan,"tablet formulation, FIG. 5B",in a range of that observed with IV irinotecan dosage of 340 mg/m^2
CCc1c2c(nc3ccc(OC(=O)N4CCC(N5CCCCC5)CC4)cc13)-c1cc3c(c(=O)n1C2)COC(=O)[C@]3(O)CC [IV dosed irinotecan],Cmax,[5],3392 ng/mL
